{"source": "paper PMC4445981", "about": "“The glutamate transport inhibitor DL-Threo-β-Benzyloxyaspartic acid (DL-TBOA) differentially affects SN38- and oxaliplatin-induced death of drug-resistant colorectal cancer cells” (BMC Cancer, 2015)", "assay_type_in_all_cases": "cell-based, human", "key": {"[1]": {"test_system": "parental and drug-resistant HCT116 and LoVo cell lines", "assay": "Nucleus (DAPI) counting of adherent cells, OPERA confocal", "settings": "DL-TBOA 70 or 350 μM with SN38 or oxaliplatin, 48 h", "experimental": "Cells were seeded in 96-well plates (Greiner Bio) one day prior to experiments. Cells were treated with chemotherapy and/or inhibitors as indicated and incubated for 48 h. Medium was aspirated, and cells were washed gently in ice cold PBS, fixed in 2 % paraformaldehyde, washed in PBS, and nuclei stained by 5 min incubation with DAPI. Plates were scanned using an OPERA high-throughput microscope (PerkinElmer). Nucleus counting was performed using proprietary OPERA software, based on 100 points per well, and cell counts from non-treated cells as controls.\nSupplementary file 12885_2015_1405_MOESM2_ESM.tiff: Additional file 2: Figure S2. Nucleus counting after treatment of parental and drug-resistant HCT116 and LoVo cells with DL-TBOA. Parental and drug-resistant HCT116 and LoVo cell lines seeded in 96-well dishes were exposed to SN38 (0.1 or 0.8 μM) or oxaliplatin (0.8 or 20 μM), alone or in combination with 70 or 350 μM DL-TBOA as indicated, for 48 h. Cells were washed in PBS, fixed in 2 % paraformaldehyde and nuclei were stained with DAPI. The number of adherent cells was determined by automated counting using an OPERA confocal microscope. (A-B) Parental HCT116 cells. (C) SN38 resistant HCT116 cells. (D) Oxaliplatin-resistant HCT116 cells. (E-F) Parental LoVo cells. (G) SN38 resistant LoVo cells. (H) Oxaliplatin-resistant LoVo cells. […]"}, "[2]": {"test_system": "[3H]-D-Asp uptake (glutamate transporter activity) in LoVo-PAR cells", "assay": "[3H]-D-Asp uptake assay, LoVo-PAR", "settings": "LoVo-PAR, 100 nM [3H]-D-Asp, 6 min, 37 °C", "experimental": "(§1) We therefore next determined glutamate transporter activity (as uptake of the substrate [^3H]-D-Asp following a 6-min incubation in buffer supplemented with a tracer concentration of 100 nM [^3H]-D-Asp). […] To determine which transporter(s) was responsible for the [^3H]-D-Asp uptake, we assessed the effect of DL-TBOA, a nonselective inhibitor of EAATs, and UCPH-101, a specific SLC1A3 inhibitor [16, 28, 29]. […] Basal [^3H]-D-Asp uptake was decreased by about 60 % in SN38-resistant compared to parental HCT116 cells, whereas that in SN38-resistant LoVo cells was nearly tripled compared to parental LoVo cells.\n(§2) The [^3H]-D-Asp uptake assay was performed essentially as in [30]. Briefly, cells were split into poly-D-lysine-coated white 96-well plates (PerkinElmer). A similar number of cells were seeded for HCT116 parental, HCT116-SN38 and HCT116-Oxa cell lines (7 × 10^4 cells/well) and LoVo parental, Lovo-SN38 and Lovo-Oxa cell lines (6 × 10^4 cells/well). 16–24 h later, culture medium was aspirated, and cells were washed once with 100 μl assay buffer (Hank’s Buffered Saline Solution supplemented with 20 mM HEPES, 1 mM CaCl2 and 1 mM MgCl2, pH 7.4). 50 μl assay buffer supplemented with 100 nM [^3H]-D-Asp and test compounds as indicated was added, and the plate was incubated at 37 °C for 6 min. Non-specific [^3H]-D-Asp uptake was determined in wells with 3 mM L-glutamate. The assay mixture was quickly removed, and wells were washed with 2 × 100 μl ice-cold assay buffer, followed by 150 μl Microscint™20 scintillation fluid (PerkinElmer). The plate was shaken for 1 h and counted in a Wallac 1450 MicroBeta Trilux scintillation counter (GMI, Ramsey, MN)."}, "[3]": {"test_system": "[3H]-D-Asp uptake in HCT116 and LoVo cells (parental and resistant)", "assay": "[3H]-D-Asp uptake assay, summary over cell lines", "settings": "all cell lines; read-out: IC50 values, inhibition of basal [3H]-D-Asp uptake", "experimental": "as §1, §2"}, "[4]": {"test_system": "retinoblastoma protein phosphorylation on Ser 807/811 (pRb)", "assay": "pRb (Ser 807/811) level by Western blotting", "experimental": "Cells were grown to a confluence of 60-80 % and treated with chemotherapy, siRNA- or plasmid transfection as indicated. Cells were washed once in PBS, lysed in lysis buffer (1 % SDS, 0.1 M Tris pH 7.5, and 1 mM Na3VO4), sonicated, and protein content determined (DC assay, BioRad). Lysates were mixed 2:1with NuPage LDS sample buffer (Invitrogen). SDS-PAGE was carried out in NOVEX chambers with NuPAGE 10 % Bis-Tris gels under reducing and denaturing conditions, using BenchMark protein ladder (Invitrogen), and 15 μg protein per lane. Proteins were transferred to PVDF membranes, which were Ponceau S stained, blocked for 1 h at 37 °C in 5 % nonfat dry milk in TBST (0.01 M Tris/HCl, 0.15 M NaCl, 0.1 % Tween 20, pH 7.4), incubated overnight at 4 °C with primary antibodies diluted in blocking buffer, washed in TBST, incubated with secondary antibodies for 1 h, washed in TBST, and developed using BCIP/NBT (KPL). Bands were scanned and quantified using UN-SCAN-IT (Silk Scientific).\nSupplementary file 12885_2015_1405_MOESM5_ESM.tiff: Additional file 5: Figure S5. Effects of DL-TBOA on proliferation after chemotherapy treatment. Parental and drug-resistant HCT116 (A) and LoVo (B) cell lines seeded in 6-well dishes were exposed to SN38 (0.8 μM) or oxaliplatin (20 μM) alone or in combination with 350 μM DL-TBOA as indicated, for 24 h. Equal amounts of protein per lane were separated by SDS-PAGE and the protein levels of phosphorylation of retinoblastoma protein on Ser 807/811 (pRb) were determined by Western blotting. Top: Representative Western blots, with β-actin as loading control. Bottom: Densitometric quantifications based on 3 independent experiments per condition. Data are means with S.E.M. error bars of 3 independent experiments. Two-way ANOVA with Tukey post-test."}, "[5]": {"test_system": "[3H]-D-Asp uptake (glutamate transporter activity) in HCT116-SN38 cells", "assay": "[3H]-D-Asp uptake assay, HCT116-SN38", "settings": "HCT116-SN38, 100 nM [3H]-D-Asp, 6 min, 37 °C", "experimental": "as §1, §2"}, "[6]": {"test_system": "[3H]-D-Asp uptake (glutamate transporter activity) in HCT116-PAR cells", "assay": "[3H]-D-Asp uptake assay, HCT116-PAR", "settings": "HCT116-PAR, 100 nM [3H]-D-Asp, 6 min, 37 °C", "experimental": "as §1, §2"}, "[7]": {"settings": "read-out: IC50, [3H]-D-Asp uptake"}}, "data": [{"smiles": "N[C@H](C(=O)O)[C@H](OCc1ccccc1)C(=O)O", "note": "(racemic) [TBOA, DL-Threo-β-Benzyloxyaspartic acid]", "values": [{"measurement": "effect on number of surviving adherent cells after chemotherapy", "setting": "[1]", "result": "opposite effects of DL-TBOA on SN38- and oxaliplatin-induced loss of viability are also evident"}, {"measurement": "pIC50 ± S.E.M., [3H]-D-Asp uptake", "setting": "[2]", "result": "5.84 ± 0.03"}, {"measurement": "IC50", "setting": "[2]; [7]", "result": 1.4, "unit": "µM"}, {"measurement": "IC50", "setting": "[3]", "result": "~2", "unit": "µM"}, {"measurement": "effect on cellular level of phospho-Retinoblastoma protein", "setting": "[4]; DL-TBOA, HCT116 and LoVo cells", "result": "did not significantly alter"}, {"measurement": "effect on pRb level after oxaliplatin treatment", "setting": "[4]; all cell types except oxaliplatin-resistant HCT116, 350 μM DL-TBOA + 20 μM oxaliplatin, 24 h, not statistically significant", "result": "slightly but consistently decreased pRb levels"}, {"measurement": "effect on pRb level", "setting": "[4]; control conditions, both parental cell lines, 350 μM DL-TBOA, 24 h, not statistically significant", "result": "tended to increase pRb levels"}, {"measurement": "pIC50 ± S.E.M., [3H]-D-Asp uptake", "setting": "[5]", "result": "5.83 ± 0.08"}, {"measurement": "IC50", "setting": "[5]; [7]", "result": 1.5, "unit": "µM"}, {"measurement": "pIC50 ± S.E.M., [3H]-D-Asp uptake", "setting": "[6]", "result": "5.75 ± 0.03"}, {"measurement": "IC50", "setting": "[6]; [7]", "result": 1.8, "unit": "µM"}]}]}
